In patent US12612409B2, “Pyrrolopyrimidines as CFTR potentiators” (Cystic Fibrosis Foundation, priority 2016, dated 2026):

Tests used:
[1] = biological target: T1, CFTR in F508del/F508del primary CF hBE cells (Homo sapiens, UniProt P13569, DEL508-508); assay: Ussing chamber electrophysiology assay of CFTR potentiation in F508del/F508del CF bronchial epithelial cells (27° C.); format: cell-based
T1 construct: Primary cystic fibrosis human bronchial epithelial (CF hBE) cells were expanded and cultured; endogenous in cells; host or cells: primary CF human bronchial epithelial cells, genotype F508del/F508del
T1 sequence (P13569 with tags, fused parts or gaps DEL508-508): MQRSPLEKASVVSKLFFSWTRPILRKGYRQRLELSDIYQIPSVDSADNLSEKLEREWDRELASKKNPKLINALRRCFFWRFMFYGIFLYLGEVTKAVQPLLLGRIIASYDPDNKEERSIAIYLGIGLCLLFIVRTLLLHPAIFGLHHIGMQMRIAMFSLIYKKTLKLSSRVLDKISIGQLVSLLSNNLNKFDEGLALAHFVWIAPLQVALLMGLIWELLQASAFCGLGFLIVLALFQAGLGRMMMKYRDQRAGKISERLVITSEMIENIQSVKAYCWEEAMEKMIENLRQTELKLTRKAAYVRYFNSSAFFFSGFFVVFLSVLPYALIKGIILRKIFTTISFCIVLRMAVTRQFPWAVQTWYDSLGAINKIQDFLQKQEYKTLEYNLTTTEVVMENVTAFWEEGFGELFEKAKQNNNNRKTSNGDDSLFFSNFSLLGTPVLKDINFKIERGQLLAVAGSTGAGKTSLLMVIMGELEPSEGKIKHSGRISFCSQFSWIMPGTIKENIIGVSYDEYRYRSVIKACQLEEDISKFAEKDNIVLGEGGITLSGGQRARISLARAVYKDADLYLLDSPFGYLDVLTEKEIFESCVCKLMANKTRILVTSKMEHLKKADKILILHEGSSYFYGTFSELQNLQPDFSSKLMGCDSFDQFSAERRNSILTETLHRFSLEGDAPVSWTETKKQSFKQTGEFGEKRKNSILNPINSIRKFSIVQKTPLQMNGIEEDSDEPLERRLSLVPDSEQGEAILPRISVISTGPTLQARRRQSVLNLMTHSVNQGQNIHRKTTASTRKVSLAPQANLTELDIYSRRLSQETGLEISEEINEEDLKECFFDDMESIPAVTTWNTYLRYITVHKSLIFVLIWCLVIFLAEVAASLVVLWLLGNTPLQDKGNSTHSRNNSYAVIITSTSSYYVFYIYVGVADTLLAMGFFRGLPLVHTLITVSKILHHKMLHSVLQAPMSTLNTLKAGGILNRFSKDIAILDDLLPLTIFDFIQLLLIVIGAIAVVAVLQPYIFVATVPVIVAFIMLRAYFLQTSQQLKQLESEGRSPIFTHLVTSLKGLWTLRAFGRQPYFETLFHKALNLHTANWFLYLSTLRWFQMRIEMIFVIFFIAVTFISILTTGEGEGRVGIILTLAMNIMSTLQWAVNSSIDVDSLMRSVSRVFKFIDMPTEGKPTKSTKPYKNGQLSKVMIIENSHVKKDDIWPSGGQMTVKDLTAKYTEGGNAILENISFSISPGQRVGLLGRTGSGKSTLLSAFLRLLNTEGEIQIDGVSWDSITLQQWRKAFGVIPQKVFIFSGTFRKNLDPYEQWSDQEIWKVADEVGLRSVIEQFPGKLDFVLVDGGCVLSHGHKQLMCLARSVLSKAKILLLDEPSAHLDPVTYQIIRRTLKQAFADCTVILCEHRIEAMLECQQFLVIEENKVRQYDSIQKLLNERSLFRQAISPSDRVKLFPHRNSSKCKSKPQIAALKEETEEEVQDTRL
Procedure, shortened: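 Well-differentiated primary CF hBE cells (>30 days air/liquid interface) in Ussing chambers, HEPES saline both sides, voltage clamped to zero. Amiloride 30 uM, forskolin 10 uM, four rising compound concentrations, then CFTRinh-172 20 uM added at 20-25 min intervals. Short-circuit current scaled to DMSO (0%) and a positive control potentiator maximum (100%).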

[2] = biological target: T2, recombinant F508del V470 CFTR in Fischer rat thyroid (FRT) cells (Homo sapiens, UniProt P13569, DEL508-508); assay: FRT ion flux assay of F508del CFTR potentiation; format: cell-based; conditions: FRT cells expressing F508del V470 CFTR, forskolin 20 uM, 27° C. pre-incubation
T2 construct: expressed in transfected cells
T2 sequence (P13569 with tags, fused parts or gaps DEL508-508): as above
Procedure, shortened: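 FRT cells co-expressing F508del V470 CFTR and halide-sensitive YFP, temperature-corrected at 27° C for 16-24 h, then treated 30 min with compound plus 20 uM forskolin. Iodide addition quenches YFP, read after ~21 s; ratio scaled to DMSO (0%) and positive control potentiator (100%).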

In the case of `COc1ncncc1-c1cn(C(c2cn(-c3ccccc3F)nn2)C2CC2)c2ncnc(N)c12` (single isomer, unassigned; enantiomer 1) [Example 174, (+) 7-{Cyclopropyl[1-(2-fluorophenyl)-1H-1,2,3-triazol-4-yl]methyl}-5-(4-methoxypyrimidin-5-yl)-7H-pyrrolo[2,3-d]pyrimidin-4-amine, enantiomer 1], the EC50 [1] is reported as 31.5 nM and the EC50 [2] is reported as 19.6 nM.

Compound `CCC(c1cnn(-c2ccccc2F)c1)n1cc(-c2cnc(C(F)(F)F)nc2)c2c(N)ncnc21` (single isomer, unassigned; enantiomer 1) [Example 175, 7-{(1-[1-(2-Fluorophenyl)-1H-pyrazol-4-yl]propyl}-5-[2-(trifluoromethyl)pyrimidin-5-yl]-7H-pyrrolo[2,3-d]pyrimidin-4-amine, enantiomer 1] has an EC50 [1] of 8 nM and an EC50 [2] of 9.89 nM.

`CCC(c1c[nH]c(-c2ccc(F)cc2F)n1)n1cc(-c2cnc(C(F)(F)F)nc2)c2c(N)ncnc21` (single isomer, unassigned; enantiomer 1) [Example 177, 7-{1-[2-(2,4-Difluorophenyl)-2H-imidazol-4-yl]propyl}-5-[2-(trifluoromethyl)pyrimidin-5-yl]-7H-pyrrolo[2,3-d]pyrimidin-4-amine, enantiomer 1] showed an EC50 [1] of 18.9 nM and an EC50 [2] of 21.6 nM.

In the case of `Cc1c(C(C)n2cc(-c3cnc(C(F)(F)F)nc3)c3c(N)ncnc32)nnn1-c1ccccc1F` (single isomer, unassigned; enantiomer 1) [Example 179, 7-{1-[1-(2-Fluorophenyl)-5-methyl-1H-1,2,3-triazol-4-yl]ethyl}-5-[2-(trifluoromethyl)pyrimidin-5-yl]-7H-pyrrolo[2,3-d]pyrimidin-4-amine, enantiomer 1], the EC50 [1] is reported as 23.1 nM and the EC50 [2] is reported as 9.97 nM.

`CC(c1cc(-c2ccccc2F)no1)n1cc(-c2ccc(Cl)cc2)c2c(N)ncnc21` (single isomer, unassigned; enantiomer 1) [Example 181, (+)-5-(4-Chlorophenyl)-7-{1-[3-(2-fluorophenyl)-1,2-oxazol-5-yl]ethyl}-7H-pyrrolo[2,3-d]pyrimidin-4-amine, enantiomer 1] gave an EC50 [1] of 24.5 nM and an EC50 [2] of 538 nM.

In the case of `CC(c1cn(-c2ccccc2F)nn1)n1cc(C2CCC2)c2c(N)ncnc21` (single isomer, unassigned; enantiomer 1) [Example 294, 5-Cyclobutyl-7-{1-[1-(2-fluorophenyl)-1H-1,2,3-triazol-4-yl]ethyl}-7H-pyrrolo[2,3-d]pyrimidin-4-amine, enantiomer 1], the EC50 [1] is reported as 189 nM and the EC50 [2] is reported as 167 nM.

With `CCC(c1cn(-c2cccc(F)c2F)nn1)n1cc(-c2cncnc2OC)c2c(N)ncnc21` (single isomer, unassigned; enantiomer 1) [Example 305, (−) 7-{1-[1-(2,3-Difluorophenyl)-1H-1,2,3-triazol-4-yl]propyl}-5-(4-methoxypyrimidin-5-yl)-7H-pyrrolo[2,3-d]pyrimidin-4-amine, enantiomer 1] the EC50 [1] was 372 nM and the EC50 [2] was 545 nM.

`CCC(c1cn(-c2cc(F)ccc2F)nn1)n1cc(-c2cncnc2OC)c2c(N)ncnc21` (single isomer, unassigned; enantiomer 1) [Example 307, (+) 7-{1-[1-(2,5-Difluorophenyl)-1H-1,2,3-triazol-4-yl]propyl}-5-(4-methoxypyrimidin-5-yl)-7H-pyrrolo[2,3-d]pyrimidin-4-amine, enantiomer 1] gave an EC50 [1] of 55.4 nM and an EC50 [2] of 45.8 nM.

Compound `CCC(c1cn(-c2ccc(OC)nc2)nn1)n1cc(-c2cnc(C(F)(F)F)nc2)c2c(N)ncnc21` (single isomer, unassigned; enantiomer 1) [Example 309, 7-{1-[1-(6-Methoxypyridin-3-yl)-1H-1,2,3-triazol-4-yl]propyl}-5-[2-(trifluoromethyl)pyrimidin-5-yl]-7H-pyrrolo[2,3-d]pyrimidin-4-amine, enantiomer 1] has an EC50 [1] of 69 nM and an EC50 [2] of 69 nM.
